Structures can show the parent of a compound that is named as a salt.
Biological target: T1, Glutathione reductase, mitochondrial (Homo sapiens, UniProt P00390)
T1 sequence (P00390 whole entry): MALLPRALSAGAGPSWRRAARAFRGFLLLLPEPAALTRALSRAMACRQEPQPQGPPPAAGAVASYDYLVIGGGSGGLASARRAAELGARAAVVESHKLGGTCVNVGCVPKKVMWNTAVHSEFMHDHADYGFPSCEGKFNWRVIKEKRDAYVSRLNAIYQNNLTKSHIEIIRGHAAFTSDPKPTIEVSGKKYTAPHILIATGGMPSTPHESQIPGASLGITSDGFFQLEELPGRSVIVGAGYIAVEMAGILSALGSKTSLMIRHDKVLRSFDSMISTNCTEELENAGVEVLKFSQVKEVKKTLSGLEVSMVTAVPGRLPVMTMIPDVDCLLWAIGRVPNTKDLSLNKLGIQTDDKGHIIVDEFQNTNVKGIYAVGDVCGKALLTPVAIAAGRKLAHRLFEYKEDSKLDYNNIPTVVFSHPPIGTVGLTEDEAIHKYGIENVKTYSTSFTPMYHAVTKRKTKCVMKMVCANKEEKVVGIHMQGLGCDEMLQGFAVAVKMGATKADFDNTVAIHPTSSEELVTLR
Experiment: Activity Assay
Details: pH 8; 25 °C
Protocol: The assay system contained 40 mM Tris-HCl buffer, pH 8.0, including 0.8 mM EDTA, 1 mM GSSG and 0.1 mM NADPH in 1 mL total reaction volume. The activity was measured by monitoring the decrease in absorbance at 340 nm due to the oxidationof NADPH at 25°C. One enzyme unit is defined as the oxidation of […] NADPH per min under the assay conditions.

SMILES | IC50 [µM] | Ki [µM]
CN1CCC(=C2c3ccccc3CC(=O)c3sccc32)CC1 [(Z)-2-butenedioate;10-(1-methyl-4-piperidinylidene)-5H-benzo[1,2]cyclohepta[3,4-b]thiophen-4-one] | 12 | 0.8
O=C(O)CN(CCN(CC(=O)O)CC(=O)O)CCN(CC(=O)O)CC(=O)O [Gadopentetic acid] | – | 28800
OC(CNc1ccccn1)c1ccccc1 (stereo not given) [Phenyramidol-HCl] | 990 | 434
